Experimental data published in patent US4487777A (priority 1981, dated 1984).

What was measured:
[1] = tested on: Alternaria solani conidia; experiment: Tomato Early Blight control (tomato seedlings, sprayed then inoculated); assay type: in vivo; conditions: 288 h, 250-ppm solution, tomato (Bonny Best), relative to untreated check plants, read-out: % Control TEB (Tomato Early Blight)
Protocol: Compounds of the invention were tested for the control of the Tomato Early Blight organism, Alternaria solani conidia. Tomato (variety Bonny Best) seedlings of 6 to 7 weeks old were used. The tomato plants were sprayed with a 250-ppm solution of the test compound in an acetone-and-water solution containing a small amount of a non-ionic emulsifier. The sprayed plants were inoculated one day later with the organism, placed in the environmental chamber and incubated at 66°-68° F. and 100% relative humidity for 24 hours. Following the incubation, the plants were maintained in the greenhouse for about 12 days. Percent disease control was based on the percent disease development on untreated check plants.

[2] = tested on: Phytophthora infestans conidia; experiment: whole plant or invertebrate; assay type: in vivo; conditions: in Solanum lycopersicum, 168 h, read-out: % Control TLB (Tomato Late Blight)
[3] = tested on: Rhizoctonia solani; experiment: Rhizoctonia mycelial inhibition test; assay type: cell-based; conditions: 500 ppm in acetone; 25° C., 24 hours; standard Difolatan; "0" assigned where greater than 1.6 micrograms/cm^2 required for 99% control
Protocol: Compounds of the present invention were evaluated for effectiveness against Rhizoctonia solani by means of a mycelial inhibition test. This test is designed to measure the fungitoxic activity of fungicidal chemicals in terms of their degree of inhibition of mycelial growth. Each compound to be tested was dissolved in acetone to 500 ppm concentration. Paper strips were infused with the particular mycelium growth (on this case Rhizoctonia solani) by covering the paper with a potato dextrose broth culture of mycelial suspension. The papers were then placed on potato dextrose agar plates and sprayed by means of a microsprayer with the fungicidal solution. The treated paper strips were incubated at 25° C. and data taken after 24 hours. Fungicidal activity is measured by the zone of inhibited mycelial growth from the center of the paper strip. The effectiveness of the compounds tested for fungicidal activity against Rhizoctonia solani is reported in Table III in terms of the [formula] In cases where greater than 1.6 micrograms/cm^2 were required for 99% control, a value of "0" was assigned to the test compound.

[4] = tested on: Septoria apii; assay type: in vivo; conditions: celery (Utah) plants; % disease reduction relative to untreated check plants; concentration not given
[5] = tested on: Plasmapora viticola; experiment: Grape Downy Mildew control (detached grape leaves); assay type: in vivo; conditions: detached Vitis vinifera cultivar Emperor leaves; % disease reduction relative to untreated check plants; concentration not given
Protocol: Grape Downy Mildew Control
The compounds of the invention were tested for the control of the grape downy mildew organism Plasmapora viticola. Detached leaves, between 70 and 85 mm in diameter, of 7-week-old Vitis vinifera cultivar Emperor grape seedlings were used as hosts. The leaves were sprayed with a solution of the test compound in acetone. The sprayed leaves were dried, inoculated with a spore suspension of the organism, placed in a humid environmental chamber and incubated at 66°-68° F. and about 100% relative humidity. After incubation for 2 days, the plants were then held in a greenhouse for seven to nine days. Afterwards, the amount of disease control was determined. The percent disease control provided by a given test compound was based on the percent disease reduction relative to untreated check plants.

[6] = tested on: Botrytis cinerea; experiment: Botrytis cinerea preventive control on harvested grape berries; assay type: in vivo; conditions: grape berries (Emperor)
Protocol: EXAMPLE 15-Botrytis Cinerea Control
Compound 1 of the invention was tested as a preventive fungicide against Botrytis cinerea on harvested mature grape berries (variety Emperor) by the following procedure: four grape bunches (trimmed to approximately 30 berries) were sprayed with a solution of the test compound in a solution of water, acetone and a small amount of a non-ionic emulsifier. The sprayed grapes were inoculated approximately one day later with 2- to 3-week-old culture of Botrytis cinerea grown on potato dextrose agar plates. The rate of disease incidence was determined 5-10 days after inoculation, when disease symptoms are fully evident on non-treated check grapes. Infection is determined by actual count of the number of infected berries. The percent disease control provided by a test compound was calculated from the percentage disease reduction based on the non-treated check grapes.

COC(=O)CCS(=O)(=O)CC1CC(=O)N(c2cc(Cl)cc(Cl)c2)C1=O (centres unmarked) [Compound 2]
pest or weed control at 250 µg/mL [1]: 96%
pest or weed control at 250 µg/mL [2]: 23%
% Control Rhizoc (Rhizoctonia) [3]: 0%
% Control CLB (Celery Late Blight) [4]: 45%
% Control Grape DM (Grape Downy Mildew) [5]: 71%

COC(=O)CCSCC1CC(=O)N(c2cc(Cl)cc(Cl)c2)C1=O (centres unmarked) [Compound 7]
pest or weed control at 250 µg/mL [1]: 89%
pest or weed control at 250 µg/mL [2]: 21%
% Control Rhizoc (Rhizoctonia) [3]: 0%
% Control CLB (Celery Late Blight) [4]: 0%
% Control Grape DM (Grape Downy Mildew) [5]: 97%

C=C(Cl)CS(=O)(=O)CC1CC(=O)N(c2cc(Cl)cc(Cl)c2)C1=O (centres unmarked) [Compound 10]
pest or weed control at 250 µg/mL [1]: 83%
pest or weed control at 250 µg/mL [2]: 29%
% Control Rhizoc (Rhizoctonia) [3]: 91%
% Control CLB (Celery Late Blight) [4]: 50%
% Control Grape DM (Grape Downy Mildew) [5]: 18%

CC(=O)SCC1CC(=O)N(c2cc(Cl)cc(Cl)c2)C1=O (centres unmarked) [Compound 5, N-3,5-dichlorophenyl-2-thioacetylmethylsuccinimide]
pest or weed control at 250 µg/mL [1]: 57%
pest or weed control at 250 µg/mL [2]: 0%
% Control Rhizoc (Rhizoctonia) [3]: 0%
% Control CLB (Celery Late Blight) [4]: 0%
% Control Grape DM (Grape Downy Mildew) [5]: 23%

CCSC=C1CC(=O)N(c2cc(Cl)cc(Cl)c2)C1=O [Compound 13, N-3,5-dichlorophenyl-2-ethylthiomethenylsuccinimide]
pest or weed control at 250 µg/mL [1]: 94%
pest or weed control at 250 µg/mL [2]: 0%
% Control Rhizoc (Rhizoctonia) [3]: 0%
% Control CLB (Celery Late Blight) [4]: 0%
% Control Grape DM (Grape Downy Mildew) [5]: 35%

O=C1CC(=CSc2ccccc2)C(=O)N1c1cc(Cl)cc(Cl)c1 [Compound 12, N-3,5-dichlorophenyl-2-phenylthiomethenylsuccinimide]
pest or weed control at 250 µg/mL [1]: 0%
pest or weed control at 250 µg/mL [2]: 21%
% Control Rhizoc (Rhizoctonia) [3]: 0%
% Control CLB (Celery Late Blight) [4]: 0%
% Control Grape DM (Grape Downy Mildew) [5]: 0%

CCOC(=O)CSCC1CC(=O)N(c2cc(Cl)cc(Cl)c2)C1=O (centres unmarked) [Compound 4, N-3,5-dichlorophenyl-2-ethoxycarbonylmethylthiomethylsuccinimide]
pest or weed control at 250 µg/mL [1]: 0%
pest or weed control at 250 µg/mL [2]: 84%
% Control Rhizoc (Rhizoctonia) [3]: 0%
% Control Grape DM (Grape Downy Mildew) [5]: 0%

CCOC(=O)CS(=O)(=O)CC1CC(=O)N(c2cc(Cl)cc(Cl)c2)C1=O (centres unmarked) [Compound 3, N-3,5-dichlorophenyl-2-ethoxycarbonylmethylsulfonylmethylsuccinimide]
pest or weed control at 250 µg/mL [1]: 85%
pest or weed control at 250 µg/mL [2]: 93%
% Control Rhizoc (Rhizoctonia) [3]: 78%
% Control Grape DM (Grape Downy Mildew) [5]: 23%

COC(=O)CSCC1CC(=O)N(c2cc(Cl)cc(Cl)c2)C1=O (centres unmarked) [Compound 6, N-3,5-dichlorophenyl-2-methoxycarbonylmethylthiomethylsuccinimide]
pest or weed control at 250 µg/mL [1]: 80%
pest or weed control at 250 µg/mL [2]: 39%
% Control Rhizoc (Rhizoctonia) [3]: 0%
% Control CLB (Celery Late Blight) [4]: 50%
% Control Grape DM (Grape Downy Mildew) [5]: 18%

C=CCS(=O)(=O)CC1CC(=O)N(c2cc(Cl)cc(Cl)c2)C1=O (centres unmarked) [Compound 9, N-3,5-dichlorophenyl-2-allylsulfonylmethylsuccinimide]
pest or weed control at 250 µg/mL [1]: 63%
pest or weed control at 250 µg/mL [2]: 25%
% Control Rhizoc (Rhizoctonia) [3]: 80%
% Control CLB (Celery Late Blight) [4]: 50%
% Control Grape DM (Grape Downy Mildew) [5]: 57%

CC(C)(C)S(=O)(=O)C=C1CC(=O)N(c2cc(Cl)cc(Cl)c2)C1=O [Compound 11, N-3,5-dichlorophenyl-2-t-butylsulfonylmethenylsuccinimide]
pest or weed control at 250 µg/mL [1]: 0%
pest or weed control at 250 µg/mL [2]: 6%
% Control Rhizoc (Rhizoctonia) [3]: 0%
% Control CLB (Celery Late Blight) [4]: 0%
% Control Grape DM (Grape Downy Mildew) [5]: 8%

COC(=O)CS(=O)(=O)CC1CC(=O)N(c2cc(Cl)cc(Cl)c2)C1=O (centres unmarked) [Compound 1, N-3,5-dichlorophenyl-2-methoxycarbonylmethylsulfonylmethylsuccinimide]
pest or weed control at 250 µg/mL [1]: 89%
pest or weed control at 250 µg/mL [2]: 11%
% Control Rhizoc (Rhizoctonia) [3]: 0%
% Control CLB (Celery Late Blight) [4]: 57%
% Control Grape DM (Grape Downy Mildew) [5]: 81%
Botrytis Prevention (% Control) ([6]; 40 ppm): 58%
Botrytis Prevention (% Control) ([6]; 100 ppm): 52%
Botrytis Prevention (% Control) ([6]; 250 ppm): 58%

O=C1CC(C2SCCS2)C(=O)N1c1cc(Cl)cc(Cl)c1 (centres unmarked) [Compound 8, N-3,5-dichlorophenyl-2-formylsuccinimide-2-dithioketal]
pest or weed control at 250 µg/mL [1]: 98%
pest or weed control at 250 µg/mL [2]: 89%
% Control Rhizoc (Rhizoctonia) [3]: 30%
% Control CLB (Celery Late Blight) [4]: 29%
% Control Grape DM (Grape Downy Mildew) [5]: 18%

CC(C)(C)SC=C1CC(=O)N(c2cc(Cl)cc(Cl)c2)C1=O [Compound 14, N-3,5-dichlorophenyl-2-t-butylthiomethenylsuccinimide]
pest or weed control at 250 µg/mL [1]: 96%
pest or weed control at 250 µg/mL [2]: 67%
% Control Rhizoc (Rhizoctonia) [3]: 0%
% Control CLB (Celery Late Blight) [4]: 57%
% Control Grape DM (Grape Downy Mildew) [5]: 42%
